Values joined by “and” are separate entries in the source; they are usually repeats but may differ in a detail not shown here. Equal entries are not always repeated.

The target in data set [1] is T1, SaDHPS (Staphylococcus aureus, UniProt O05701). Briefly: DHPS enzyme inhibition assay. The data set is classed as biochemical.
The target in data set [2] is T2, YpDHPS (Yersinia pestis, UniProt A0A2S9PLG4). The data set is classed as biochemical.
Data set [3] has as its target T3, BaDHPS (Bacillus anthracis, UniProt Q81VW8). In words: biochemical. Format: binding.
A short description of another data set: Antimicrobial activity. Format: cell-based.
Data set [4] addresses T1, SaDHPS. Briefly: Michaelis-Menten kinetics in the presence of compound 11. The data set is classed as biochemical. The following applies: pABA 0 to 10 μM.
Data set [5] addresses T3, BaDHPS. Briefly: biochemical.
Data set [6] is described as follows: LC-MS stability in conditions that recapitulate the crystallization conditions. The data set is classed as physicochemical. The note with it: conditions that recapitulate the crystallization conditions (pH and time).
A short description of the next data set: Aqueous solubility. The data set is classed as physicochemical.
Data set [7] concerns the target T3, BaDHPS. Format: biochemical.
The target in data set [8] is T2, YpDHPS. In words: biochemical.

T1 sequence (O05701 whole entry): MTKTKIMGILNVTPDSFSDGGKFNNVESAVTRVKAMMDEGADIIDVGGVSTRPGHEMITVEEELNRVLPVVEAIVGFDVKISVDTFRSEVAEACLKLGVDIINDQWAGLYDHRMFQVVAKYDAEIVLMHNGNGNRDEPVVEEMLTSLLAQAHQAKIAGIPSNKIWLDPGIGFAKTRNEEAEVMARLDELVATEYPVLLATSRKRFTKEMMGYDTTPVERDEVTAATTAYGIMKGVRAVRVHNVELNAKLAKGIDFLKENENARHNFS
T2 sequence (A0A2S9PLG4 1-277): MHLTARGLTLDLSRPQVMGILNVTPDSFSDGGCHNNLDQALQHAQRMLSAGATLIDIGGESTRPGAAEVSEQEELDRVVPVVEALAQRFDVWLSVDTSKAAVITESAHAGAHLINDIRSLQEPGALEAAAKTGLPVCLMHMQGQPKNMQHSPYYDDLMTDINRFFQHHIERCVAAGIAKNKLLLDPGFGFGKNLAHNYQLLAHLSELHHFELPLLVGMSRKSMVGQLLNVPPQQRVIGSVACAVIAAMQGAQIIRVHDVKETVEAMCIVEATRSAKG
T3 sequence (Q81VW8 1-280): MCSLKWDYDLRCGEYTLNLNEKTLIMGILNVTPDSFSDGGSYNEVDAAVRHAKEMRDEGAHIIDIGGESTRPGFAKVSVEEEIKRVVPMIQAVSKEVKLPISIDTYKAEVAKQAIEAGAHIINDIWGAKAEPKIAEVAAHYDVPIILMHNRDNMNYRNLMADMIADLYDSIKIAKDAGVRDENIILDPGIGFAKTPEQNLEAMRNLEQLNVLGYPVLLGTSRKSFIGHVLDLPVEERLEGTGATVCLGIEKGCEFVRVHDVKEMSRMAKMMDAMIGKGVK

As for `FC(F)(F)c1ccc(/C=N/Cc2ccc(C(F)(F)F)cc2)cc1` [Compound 11, (E)-N-(4-(Trifluoromethyl)benzylidene)-1-(4-(trifluoromethyl)phenyl) Methanamine], the IC50 (as a rule, the concentration needed to halve the response being measured) was 17 µM on SaDHPS [1], 50 µM against BaDHPS [5] and 31 µM at YpDHPS [8]. The inhibition at 250 µM on SaDHPS [1] (read-out: inhibition of SaDHPS), on BaDHPS [5] (read-out: inhibition of BaDHPS) and on YpDHPS [8] (read-out: inhibition of YpDHPS) was 100% each time. Further, the Kmobs was 1.8 µM and 1.2 µM on YpDHPS [2]; 2.7 µM on SaDHPS [4] (50 μM compd 11, DHPP 20 μM); 0.38 µM on SaDHPS [4] (100 μM compd 11, DHPP 20 μM); 1.0 µM and 0.74 µM on BaDHPS [7]. The dissociation constant (Kd) (usually the constant that tells how readily two partners part at equilibrium) on BaDHPS [3] was determined as 130 ± 1 µM. At BaDHPS [3], the “increase in binding affinity of pABA to DHPS in the presence of 11” value was found to be 2 fold. Further, the antimicrobial activity entry in the data set “Antimicrobial activity” was “lacks antimicrobial activity”. In addition, the Vmaxobs on SaDHPS [4] (50 μM compd 11, DHPP 20 μM) is 211.2 nM/min; at SaDHPS [4] (100 μM compd 11, DHPP 20 μM) it was 31.19 nM/min; at BaDHPS [7] it was 106.7 nM/min and 70.81 nM/min. For the same compound, the “stability by liquid chromatography-mass spectrometric analysis” value in data set [6] is given as “stable”. Moreover, in the data set “Aqueous solubility”, the aqueous solubility result is on record as “limited aqueous solubility”.

The values above are taken from publication PMC4076017 (ACS Chemical Biology, 2014).
